Counter-ions that a name gives are not always drawn.
Key:
[1] = test system: striatal dopamine receptors; experiment: Rotation behavior assay of in vivo activity (6-hydroxydopamine lesioned rat rotational model); conditions: for ED50 s.c. (rotation behavior): injected subcutaneously
[2] = target: dopamine D-1 receptor; conditions: for EC50: read-out: EC50 (agonist activity in adenylate cyclase assay), tissue from goldfish retina or rat striatum; for Intrinsic Activity (adenylate cyclase assay): dopamine = 100, goldfish retina or rat striatum
Experimental: In order to determine agonist activity, cell-free tissue homogenates are incubated in an ionic buffer solution containing ATP and the compound being evaluated. The tissue was obtained from either goldfish retina or rat striatum.

[3] = target: dopamine D-1 receptor (Rattus norvegicus, UniProt P18901); experiment: biochemical; conditions: D-1 Ki, rat caudate, [125I]SCH-23982
Text: The compounds compete with the radiolabeled ligand for occupancy of the receptors and the molar potency of each compound was quantified.
The Ki values are inversely proportional to the affinity of the compound for the receptor.

[4] = target: dopamine D-2 receptor (Rattus norvegicus, UniProt P61169); experiment: biochemical; type: binding; conditions: rat caudate, [125I]-p-aminophenylethyl spiroperidol; read-out: D-2 Ki
Experimental: Homogenized rat caudate was the source of the D-2 receptors. […] The molar affinity of the compound for the receptor binding site was calculated by the same method used for the D-1 receptor assay, assuming a competitive interaction between the compound and the radiolabeled ligand.

dopamine D-2 receptor, sequence (P61169 whole entry): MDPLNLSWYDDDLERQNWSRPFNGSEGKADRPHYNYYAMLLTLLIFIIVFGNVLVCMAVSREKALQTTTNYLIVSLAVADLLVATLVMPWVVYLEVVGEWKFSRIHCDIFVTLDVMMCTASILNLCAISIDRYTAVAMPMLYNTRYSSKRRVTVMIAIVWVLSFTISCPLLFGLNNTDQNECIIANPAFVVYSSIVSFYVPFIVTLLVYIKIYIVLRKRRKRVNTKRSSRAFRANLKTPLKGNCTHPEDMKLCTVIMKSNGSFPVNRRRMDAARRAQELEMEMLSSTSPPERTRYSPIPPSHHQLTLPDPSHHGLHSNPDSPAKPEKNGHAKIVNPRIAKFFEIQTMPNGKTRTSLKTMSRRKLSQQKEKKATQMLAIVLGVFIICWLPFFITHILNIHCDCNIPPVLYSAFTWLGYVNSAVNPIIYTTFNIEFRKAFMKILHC
dopamine D-1 receptor (Rattus norvegicus, UniProt P18901), sequence (P18901 whole entry): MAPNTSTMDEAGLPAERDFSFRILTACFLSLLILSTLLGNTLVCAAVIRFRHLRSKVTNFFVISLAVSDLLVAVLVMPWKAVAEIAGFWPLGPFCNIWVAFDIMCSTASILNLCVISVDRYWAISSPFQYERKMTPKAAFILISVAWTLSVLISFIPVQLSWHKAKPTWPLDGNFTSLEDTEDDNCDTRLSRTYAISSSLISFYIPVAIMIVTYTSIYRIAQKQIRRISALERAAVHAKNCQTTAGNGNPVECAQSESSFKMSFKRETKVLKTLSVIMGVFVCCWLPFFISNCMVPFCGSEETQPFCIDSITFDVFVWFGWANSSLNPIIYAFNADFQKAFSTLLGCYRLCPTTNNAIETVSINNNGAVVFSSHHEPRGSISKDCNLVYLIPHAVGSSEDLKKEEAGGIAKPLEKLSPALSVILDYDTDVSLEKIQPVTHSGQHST

EC50 [2] | Ki [3] | Ki [4] | Intrinsic Activity (adenylate cyclase assay) [2] | Compound | mean rotations over 360 minutes ([1]; dose = 143 micromoles/kg p.o.) | mean rotations over 20 hours ([1]; dose = 143 micromoles/kg p.o.) | ED50 s.c. (rotation behavior) [1]
 |  |  |  | CC(=O)Oc1ccc2c(c1OC(C)=O)CC(c1ccccc1)C=C2CNC(=O)[C@H](C)NC(=O)[C@H](C)N (stereo partly drawn) [Example 4, 5,6-Bis(acetoxy)-1-(alanyl-alanyl)aminomethyl-3-phenyl-3,4-dihydronaphthalene Hydrochloride] | 3329 |  | 
 |  |  |  | CC(=O)Oc1ccc2c(c1OC(C)=O)CC(c1ccccc1)C=C2CNC(=O)OC(C)OC(C)=O (stereo not drawn) [Example 6] |  | 2564 | 
 |  |  |  | CC(=O)Oc1ccc2c(c1OC(C)=O)CC(c1ccccc1)C=C2CNC(=O)[C@H](C)N (stereo partly drawn) [Example 10] | 1516 |  | 
 |  |  |  | CSCC[C@H](N)C(=O)NCC1=CC(c2ccccc2)Cc2c1ccc(OC(C)=O)c2OC(C)=O (stereo partly drawn) [Example 14] | 3653 |  | 
 |  |  |  | C[C@H](N)C(=O)N[C@@H](C)C(=O)NCC1=CC(c2ccccc2)Cc2c1ccc(OC(=O)c1ccccc1)c2OC(=O)c1ccccc1 (stereo partly drawn) [Example 15] | 1760 |  | 
 |  |  |  | Cl.NCC1=CC(c2ccccc2)Cc2c1ccc(OC(=O)c1ccccc1)c2OC(=O)c1ccccc1 (stereo not drawn) [Example 16, 1-Aminomethyl-5,6-bis(benzoyloxy)-3-phenyl-3,4-dihydronaphthalene Hydrochloride] | 4844 |  | 
200 nM | > 10000 nM | 6600 nM |  | NCCC(=O)Oc1ccc2c(c1OC(=O)CCN)CC(c1ccccc1)C=C2CN (stereo not drawn) [Example 27] |  |  | 
1000 nM | 6000 nM | > 10000 nM | 54 | CCOC(=O)Oc1ccc2c(c1OC(=O)OCC)CC(c1ccccc1)C=C2CN (stereo not drawn) [Example 29] |  |  | 
33 nM | 120 nM | 30000 nM | 91 | NCC1=CC(c2cccc(O)c2)Cc2c1ccc(O)c2O (stereo not drawn) [Example 38] |  |  | 
50 nM | 1400 nM | > 10000 nM | 84 | NCC1=CC(c2ccc(O)cc2)Cc2c1ccc(O)c2O (stereo not drawn) [Example 39] |  |  | 
1100 nM | 5000 nM | 27000 nM | 86 | NCC1=CC(c2ccc3ccccc3c2)Cc2c1ccc(O)c2O (stereo not drawn) [Example 40] |  |  | 
1800 nM | 700 nM | 2500 nM | 81 | NCC1=CC(c2cccc3ccccc23)Cc2c1ccc(O)c2O (stereo not drawn) [Example 41] |  |  | 
220 nM | 1700 nM | > 10000 nM | 69 | Cl.NCc1cc(-c2ccccc2)cc2c(O)c(O)ccc12 [Example 46, 1-Aminomethyl-5,6-dihydroxy-3-phenylnaphthalene Hydrochloride] |  |  | 
71 nM | 900 nM | 6200 nM | 65 | NCC1OC2(CCCCC2)Cc2c1ccc(O)c2O (stereo not drawn) [Example 52] |  |  | 
170 nM | 15 nM | 8200 nM | 80 | CCC(C)C(C)[C@@H]1Cc2c(ccc(O)c2O)[C@H](CN)O1 (stereo partly drawn) [Example 72] |  |  | 
840 nM | 100 nM | 2000 nM | 105 | CC(C)=CCCC(C)[C@@H]1Cc2c(ccc(O)c2O)[C@H](CN)O1 (stereo partly drawn) [Example 74] |  |  | 
71 nM | 84 nM | > 10000 nM | 110 | NCC1OC2(CCCCCCC2)Cc2c1ccc(O)c2O (stereo not drawn) [Example 94] |  |  | 
100 nM | 520 nM | > 10000 nM | 104 | NCC1OC2(CCOCC2)Cc2c1ccc(O)c2O (stereo not drawn) [Example 95] |  |  | 
770 nM | 8200 nM | > 10000 nM | 61 | Oc1ccc2c(c1O)C[C@@H](c1ccccc1)O[C@H]2[C@H]1CCCN1 [Example 123] |  |  | 
520 nM | 1300 nM | > 10000 nM | 55 | Oc1ccc2c(c1O)C[C@H](c1ccccc1)O[C@@H]2[C@H]1CCCN1 [Example 127] |  |  | 
87 nM | 570 nM | 23000 nM | 108 | CCNC[C@@H]1O[C@H](C(C)(C)C)Cc2c1ccc(O)c2O [Example 128] |  |  | 
1000 nM | 2100 nM | 3100 nM | 97 | C=CCNC[C@@H]1O[C@H](C(C)(C)C)Cc2c1ccc(O)c2O [Example 129] |  |  | 
4 nM | 35 nM | 1000 nM | 81 | CNC[C@@H]1O[C@H](C23CC4CC(CC(C4)C2)C3)Cc2c1ccc(O)c2O [Example 134] |  |  | 
80 nM | 120 nM | 2600 nM | 97 | CNCC1OC2(CCCCCC2)Cc2c1ccc(O)c2O (stereo not drawn) [Example 141] |  |  | 
87 nM | 190 nM | > 10000 nM | 71 | CNCC1OC2(CCCCCCC2)Cc2c1ccc(O)c2O (stereo not drawn) [Example 142] |  |  | 

EC50 [2] | Ki [3] | Ki [4] | Intrinsic Activity (adenylate cyclase assay) [2] | Compound | mean rotations over 360 minutes ([1]; dose = 143 micromoles/kg p.o.) | mean rotations over 20 hours ([1]; dose = 143 micromoles/kg p.o.) | ED50 s.c. (rotation behavior) [1]
1100 nM | 1200 nM | > 10000 nM | 94 | CNCC1OC2(CCOCC2)Cc2c1ccc(O)c2O (stereo not drawn) [Example 143] |  |  | 
36 nM | 460 nM | 19000 nM | 78 | CNCC1=CC(c2ccccc2)Cc2c1ccc(O)c2O (stereo not drawn) [Example 149, 5,6-Dihydroxy-1-(N-methyl)aminomethyl-3-phenyl-3,4,-dihydronaphthalene] |  |  | 
22 nM | 70 nM | > 10000 nM | 47 | O=CO.Oc1ccc2c(c1O)CC(c1ccccc1)C1=C2CNC1 (stereo not drawn) [Example 184, 6,7-Dihydroxy-4-phenyl-2,3,4,5-tetrahydro-1H-benz[e]isoindole Formic Acid Salt] |  |  | 
1500 nM | 3300 nM | > 10000 nM | 65 | NCC1=CC2(CCCCC2)Cc2c1ccc(O)c2O [Example 189] |  |  | 
110 nM | 330 nM | 6300 nM | 92 | CC(C)(C)C1C=C(CN)c2ccc(O)c(O)c2C1 (stereo not drawn) [Example 190] |  |  | 
1500 nM | 1100 nM | > 10000 nM | 58 | NCC1=CC2(CCCCCCC2)Cc2c1ccc(O)c2O [Example 191] |  |  | 
680 nM | 650 nM | 3200 nM | 63 | NCC1CC2(CCCCCC2)Cc2c1ccc(O)c2O (stereo not drawn) [Example 193] |  |  | 
58 nM | 4000 nM | > 10000 nM | 82 | NCC1CC2(CCCCC2)Cc2c1ccc(O)c2O (stereo not drawn) [Example 194] |  |  | 
1100 nM | 6000 nM | > 10000 nM | 80 | NCC1CC2(CCCC2)Cc2c1ccc(O)c2O (stereo not drawn) [Example 196] |  |  | 
180 nM | 880 nM | > 5000 nM | 56 | NCC1CC2(CCCCCCC2)Cc2c1ccc(O)c2O (stereo not drawn) [Example 197] |  |  | 
> 10000 nM | 1000 nM | 4300 nM | 0 | CC(C)(C)C1Cc2c(ccc(O)c2O)C2=C1CCNC2 (stereo not drawn) [Example 203] |  |  | 
68 nM | 26 nM | 1600 nM | 79 | Oc1ccc2c(c1O)CC1(CCCCCC1)C1=C2CNCC1 [Example 206] |  |  | 
 | 490 nM | 2800 nM | 25 | Oc1ccc2c(c1O)CC(CC1CCCC1)C1=C2CNCC1 (stereo not drawn) [Example 209] |  |  | 
63 nM | 580 nM | > 10000 nM | 38 | CN1CCC2=C(C1)c1ccc(O)c(O)c1CC21CCCC1 [Example 211] |  |  | 
480 nM | 630 nM | 700 nM | 43 | CN1CCC2=C(C1)c1ccc(O)c(O)c1CC21CCCCC1 [Example 212] |  |  | 
 | 4000 nM | 1600 nM |  | CNCC1OC(CC(C)C)Cc2c1ccc(O)c2O (stereo not drawn) [Example 219] |  |  | 0.09 µmol/kg
240 nM | 230 nM | 2300 nM | 64 | CNCC1OC2(CCCCCCCC2)Cc2c1ccc(O)c2O (stereo not drawn) [Example 224] |  |  | 
1700 nM | 3800 nM | > 10000 nM | 49 | NCC1=CC2(CCCCCCCC2)Cc2c1ccc(O)c2O [Example 232] |  |  | 
2700 nM | 3900 nM | > 10000 nM | 53 | NCC1=CC2(CCCCCCCCC2)Cc2c1ccc(O)c2O [Example 234] |  |  | 
700 nM | 4400 nM | > 10000 nM | 36 | NCC1CC2(CCCCCCCC2)Cc2c1ccc(O)c2O (stereo not drawn) [Example 236] |  |  | 
1900 nM | 6500 nM | > 10000 nM | 34 | NCC1CC2(CCCCCCCCC2)Cc2c1ccc(O)c2O (stereo not drawn) [Example 237] |  |  | 
950 nM | 70 nM | 3000 nM | 83 | CCCCC1Cc2c(ccc(O)c2O)C2=C1CCNC2 (stereo not drawn) [Example 243] |  |  | 
 | 240 nM | 1200 nM |  | CN1CCC2=C(C1)c1ccc(O)c(O)c1CC2C(C)(C)C (stereo not drawn) [Example 244] |  |  | > 3 µmol/kg
 | 150 nM | 1600 nM |  | CN1CCC2=C(C1)c1ccc(O)c(O)c1CC21CCCCCCC1 [Example 250] |  |  | 0.51 µmol/kg
470 nM | 530 nM | 1200 nM | 41 | CCN1CCC2=C(C1)c1ccc(O)c(O)c1CC21CCCCCC1 [Example 251] |  |  | 

Reference: patent publication US5621133A (priority 1995, dated 1997)
